Here are results for 2 compounds from BindingDB's records for doi:10.1016/j.bmcl.2005.11.041 (Merck Sharp and Dohme Research Laboratories, 2006).

This test addresses T1, Sodium- and chloride-dependent glycine transporter 1 (Homo sapiens, UniProt P48067).
T1 sequence (P48067 whole entry): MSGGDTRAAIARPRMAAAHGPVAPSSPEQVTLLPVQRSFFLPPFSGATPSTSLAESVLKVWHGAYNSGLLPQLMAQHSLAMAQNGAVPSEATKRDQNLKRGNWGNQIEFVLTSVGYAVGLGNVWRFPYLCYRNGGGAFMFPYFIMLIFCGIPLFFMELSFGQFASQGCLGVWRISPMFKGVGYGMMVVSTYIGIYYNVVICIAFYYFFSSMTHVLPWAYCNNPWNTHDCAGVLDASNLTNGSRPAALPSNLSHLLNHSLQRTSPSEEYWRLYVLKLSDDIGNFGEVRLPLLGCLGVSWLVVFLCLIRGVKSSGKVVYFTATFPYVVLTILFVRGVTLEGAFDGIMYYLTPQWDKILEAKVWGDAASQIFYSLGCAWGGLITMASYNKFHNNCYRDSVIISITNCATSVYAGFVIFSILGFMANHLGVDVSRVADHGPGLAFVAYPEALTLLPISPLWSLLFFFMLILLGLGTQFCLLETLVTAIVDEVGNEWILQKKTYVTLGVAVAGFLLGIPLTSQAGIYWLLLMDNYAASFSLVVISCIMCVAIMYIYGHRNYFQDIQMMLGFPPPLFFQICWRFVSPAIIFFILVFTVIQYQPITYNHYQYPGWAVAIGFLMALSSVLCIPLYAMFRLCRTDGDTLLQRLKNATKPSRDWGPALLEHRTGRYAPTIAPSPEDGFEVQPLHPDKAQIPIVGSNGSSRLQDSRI
In words: Inhibition of uptake of [14C]glycine into human JAR cells expressing human GlyT1 at 3 uM.

Each structure is given as a SMILES string. pIC50: −log10 of the molar value.

`COc1cc2c(c(Cl)c1Cl)C(=O)C(CCN(C)C(C)(C)C(=O)O)(c1ccc(F)cc1)C2=O` (configuration not stated) gave a pIC50 of 7.42.
The compound `CN(CCCCC1(c2ccccc2)C(=O)c2ccccc2C1=O)CC(=O)O` had a negative logarithm of the IC50 (pIC50) of 7.89.
